In assay [1] the target is Metabotropic glutamate receptor 3 (Mus musculus) (UniProt Q9QYS2). In words: Positive allosteric modulator activity at mGlu3 receptor in CaMK2-Cre::GCaMP6s transgenic mouse PFC pyramidal cells assessed as potentiation of LY379268-induced Ca2+ mobilization at 10 uM in presence of mGlu2 negative allosteric modulator, VU6001966 by calcium imagining analysis. The conditions noted are these: filed as positive allosteric modulator. The format is functional.

In assay [2] the target is Metabotropic glutamate receptor 3 (Rattus norvegicus) (UniProt P31422). Put plainly: Positive allosteric modulator activity at rat mGlu3 receptor transfected in GIRK channel overexpressing cells assessed as potentiation of glutamate-induced response by thallium mobilization assay relative to glutamate. More on the design: concentration or dose not given beside the values.
Chain of Metabotropic glutamate receptor 3 (Rattus norvegicus) (P31422 23-879 limits assumed): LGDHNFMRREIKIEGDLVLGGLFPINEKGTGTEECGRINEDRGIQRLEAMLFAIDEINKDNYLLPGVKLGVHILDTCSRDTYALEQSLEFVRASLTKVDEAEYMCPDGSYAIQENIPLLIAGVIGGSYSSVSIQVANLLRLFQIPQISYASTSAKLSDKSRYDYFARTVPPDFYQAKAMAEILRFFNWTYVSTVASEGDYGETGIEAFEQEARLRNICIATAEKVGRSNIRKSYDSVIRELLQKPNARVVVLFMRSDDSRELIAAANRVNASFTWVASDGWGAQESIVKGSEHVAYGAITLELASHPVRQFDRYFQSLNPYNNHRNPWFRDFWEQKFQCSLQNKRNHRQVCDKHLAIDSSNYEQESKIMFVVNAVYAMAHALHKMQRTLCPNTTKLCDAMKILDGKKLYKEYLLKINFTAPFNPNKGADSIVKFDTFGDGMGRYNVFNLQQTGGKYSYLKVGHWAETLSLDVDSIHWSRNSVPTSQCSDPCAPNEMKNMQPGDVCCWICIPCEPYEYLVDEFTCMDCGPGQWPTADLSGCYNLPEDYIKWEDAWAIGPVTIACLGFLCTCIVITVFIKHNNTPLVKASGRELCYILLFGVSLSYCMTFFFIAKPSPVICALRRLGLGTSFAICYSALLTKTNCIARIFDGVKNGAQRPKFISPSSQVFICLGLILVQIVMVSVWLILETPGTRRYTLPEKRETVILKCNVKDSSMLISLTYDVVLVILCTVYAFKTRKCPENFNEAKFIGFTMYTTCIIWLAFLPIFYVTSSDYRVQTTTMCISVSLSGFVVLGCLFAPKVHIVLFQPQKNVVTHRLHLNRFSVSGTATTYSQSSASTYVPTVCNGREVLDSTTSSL

The target of assay [3] is Metabotropic glutamate receptor 2 (Rattus norvegicus, UniProt P31421). In words: Positive allosteric modulator activity at rat mGlu2 receptor transfected in GIRK channel overexpressing cells assessed as potentiation of glutamate-induced response by thallium mobilization assay. The conditions noted are these: read-out: EC50.
Chain of Metabotropic glutamate receptor 2 (P31421 whole entry): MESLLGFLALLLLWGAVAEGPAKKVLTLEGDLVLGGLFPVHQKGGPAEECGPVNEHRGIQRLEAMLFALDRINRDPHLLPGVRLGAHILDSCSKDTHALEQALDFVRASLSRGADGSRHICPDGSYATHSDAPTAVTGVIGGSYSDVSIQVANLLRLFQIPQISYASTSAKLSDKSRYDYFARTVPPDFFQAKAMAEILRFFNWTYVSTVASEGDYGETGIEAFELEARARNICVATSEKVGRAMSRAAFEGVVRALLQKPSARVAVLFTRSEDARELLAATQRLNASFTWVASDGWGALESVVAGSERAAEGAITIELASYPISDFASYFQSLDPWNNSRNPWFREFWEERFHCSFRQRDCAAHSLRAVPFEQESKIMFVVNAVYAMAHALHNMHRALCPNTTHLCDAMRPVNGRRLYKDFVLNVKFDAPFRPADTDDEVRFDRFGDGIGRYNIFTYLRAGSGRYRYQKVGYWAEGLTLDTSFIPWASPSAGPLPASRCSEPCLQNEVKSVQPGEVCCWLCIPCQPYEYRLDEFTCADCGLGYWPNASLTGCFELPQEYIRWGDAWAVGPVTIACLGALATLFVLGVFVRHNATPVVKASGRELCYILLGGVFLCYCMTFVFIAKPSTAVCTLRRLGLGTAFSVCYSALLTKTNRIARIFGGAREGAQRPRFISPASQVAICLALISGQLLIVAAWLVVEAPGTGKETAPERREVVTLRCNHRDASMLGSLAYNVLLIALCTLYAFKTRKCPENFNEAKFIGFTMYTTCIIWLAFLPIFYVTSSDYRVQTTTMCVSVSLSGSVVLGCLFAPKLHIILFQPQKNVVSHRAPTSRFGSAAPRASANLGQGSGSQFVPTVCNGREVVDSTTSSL
The target of assay [4] is Metabotropic glutamate receptor 2 (Rattus norvegicus) (UniProt P31421). In words: Positive allosteric modulator activity at rat mGlu2 receptor transfected in GIRK channel overexpressing cells assessed as potentiation of glutamate -induced response by thallium mobilization assay relative to glutamate. More on the design: concentration or dose not given beside the values. The conditions noted are these: filed as positive allosteric modulator.
Chain of Metabotropic glutamate receptor 2 (Rattus norvegicus) (P31421 19-872 limits assumed): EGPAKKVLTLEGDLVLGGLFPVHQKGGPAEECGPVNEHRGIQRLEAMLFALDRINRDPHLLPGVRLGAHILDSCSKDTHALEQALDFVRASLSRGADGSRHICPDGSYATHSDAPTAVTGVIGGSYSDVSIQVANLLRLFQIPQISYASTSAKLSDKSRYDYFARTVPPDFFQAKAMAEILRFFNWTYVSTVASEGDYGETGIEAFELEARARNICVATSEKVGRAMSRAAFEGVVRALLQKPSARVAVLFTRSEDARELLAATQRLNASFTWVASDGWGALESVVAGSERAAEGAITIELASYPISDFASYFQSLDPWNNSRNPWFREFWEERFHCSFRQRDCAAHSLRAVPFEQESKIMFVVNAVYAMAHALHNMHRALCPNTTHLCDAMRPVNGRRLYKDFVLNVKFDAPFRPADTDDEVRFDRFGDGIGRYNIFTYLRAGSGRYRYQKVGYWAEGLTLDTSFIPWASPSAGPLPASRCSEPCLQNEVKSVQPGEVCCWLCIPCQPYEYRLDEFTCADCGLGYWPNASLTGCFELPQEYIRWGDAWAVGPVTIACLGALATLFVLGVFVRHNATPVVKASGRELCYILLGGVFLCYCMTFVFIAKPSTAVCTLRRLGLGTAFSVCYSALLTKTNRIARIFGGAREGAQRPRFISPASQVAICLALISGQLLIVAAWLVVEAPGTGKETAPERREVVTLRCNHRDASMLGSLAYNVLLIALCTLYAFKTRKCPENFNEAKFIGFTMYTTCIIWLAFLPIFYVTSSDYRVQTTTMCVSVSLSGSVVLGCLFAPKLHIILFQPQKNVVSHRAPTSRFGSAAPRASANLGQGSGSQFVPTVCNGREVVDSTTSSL

Assay [5] deals with Metabotropic glutamate receptor 3 (Rattus norvegicus, UniProt P31422). Put plainly: Positive allosteric modulator activity at rat mGlu3 receptor transfected in GIRK channel overexpressing cells assessed as potentiation of glutamate-induced response by thallium mobilization assay.
Chain of Metabotropic glutamate receptor 3 (P31422 whole entry): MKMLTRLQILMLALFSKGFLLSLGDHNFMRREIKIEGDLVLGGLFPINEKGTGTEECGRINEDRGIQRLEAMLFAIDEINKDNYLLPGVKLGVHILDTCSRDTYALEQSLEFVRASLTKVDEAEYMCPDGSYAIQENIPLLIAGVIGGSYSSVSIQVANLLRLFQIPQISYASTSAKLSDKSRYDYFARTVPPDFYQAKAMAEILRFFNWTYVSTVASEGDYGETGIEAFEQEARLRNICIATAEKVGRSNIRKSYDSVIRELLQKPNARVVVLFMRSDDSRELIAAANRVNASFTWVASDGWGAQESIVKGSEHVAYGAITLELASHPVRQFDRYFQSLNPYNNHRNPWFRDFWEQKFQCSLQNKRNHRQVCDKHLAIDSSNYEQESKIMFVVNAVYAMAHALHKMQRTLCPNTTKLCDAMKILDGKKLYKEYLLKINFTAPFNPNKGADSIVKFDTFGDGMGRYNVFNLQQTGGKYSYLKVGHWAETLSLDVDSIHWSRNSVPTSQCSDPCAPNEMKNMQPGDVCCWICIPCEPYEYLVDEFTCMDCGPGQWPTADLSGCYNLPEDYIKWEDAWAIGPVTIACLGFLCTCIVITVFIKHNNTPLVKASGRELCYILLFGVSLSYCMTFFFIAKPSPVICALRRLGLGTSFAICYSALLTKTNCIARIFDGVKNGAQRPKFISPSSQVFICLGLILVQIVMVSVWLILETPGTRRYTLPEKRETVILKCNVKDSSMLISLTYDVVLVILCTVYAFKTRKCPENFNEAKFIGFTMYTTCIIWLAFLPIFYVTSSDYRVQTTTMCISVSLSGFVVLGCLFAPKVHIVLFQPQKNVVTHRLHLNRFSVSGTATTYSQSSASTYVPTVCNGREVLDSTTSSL
[6] abbreviates: filed as positive allosteric modulator.

Calls of active or inactive are those of the source. No cut-off for these calls is given here. A value given as a limit tells only on which side of the number the result lay.

Chain of Metabotropic glutamate receptor 3 (Mus musculus) (Q9QYS2 whole entry): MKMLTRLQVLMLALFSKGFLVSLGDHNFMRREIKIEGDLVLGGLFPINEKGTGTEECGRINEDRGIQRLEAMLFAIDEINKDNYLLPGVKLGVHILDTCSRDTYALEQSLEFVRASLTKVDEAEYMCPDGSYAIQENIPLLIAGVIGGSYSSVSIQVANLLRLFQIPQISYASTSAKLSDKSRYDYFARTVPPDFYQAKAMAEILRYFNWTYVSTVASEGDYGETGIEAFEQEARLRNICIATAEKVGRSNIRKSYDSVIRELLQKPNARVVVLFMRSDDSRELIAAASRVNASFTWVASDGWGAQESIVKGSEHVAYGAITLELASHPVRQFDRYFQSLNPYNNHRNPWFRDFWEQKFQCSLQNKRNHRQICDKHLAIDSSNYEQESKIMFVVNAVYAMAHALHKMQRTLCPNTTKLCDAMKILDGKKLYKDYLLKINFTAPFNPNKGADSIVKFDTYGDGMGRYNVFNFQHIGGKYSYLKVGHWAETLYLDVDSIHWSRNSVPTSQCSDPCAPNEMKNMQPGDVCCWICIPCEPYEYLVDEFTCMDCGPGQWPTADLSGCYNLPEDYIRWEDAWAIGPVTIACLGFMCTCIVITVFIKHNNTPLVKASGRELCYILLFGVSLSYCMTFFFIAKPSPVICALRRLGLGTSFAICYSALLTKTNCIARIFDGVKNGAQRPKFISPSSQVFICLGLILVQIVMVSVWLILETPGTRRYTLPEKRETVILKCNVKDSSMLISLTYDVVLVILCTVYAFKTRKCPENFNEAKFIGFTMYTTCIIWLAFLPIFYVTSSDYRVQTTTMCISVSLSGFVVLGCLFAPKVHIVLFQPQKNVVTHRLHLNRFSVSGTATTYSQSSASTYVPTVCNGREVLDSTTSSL

For the molecule `CNC(=O)c1cc(OCCCCOc2ccc(C(=O)CC(C)(C)C)c(O)c2C)ccc1F`, the result in assay [1] was Active. For the same molecule, the Activity in assay [2] (setting [6]) was 103%; in assay [4] it was 110%. Besides, the EC50 came out at 0.164 µM in assay [3] and 0.476 µM in assay [5] (read-out: EC50).
In the case of `COc1ccc(C(=O)O)cc1OC[C@H](C)COc1ccc(C(=O)CC(C)(C)C)c(O)c1C`, the outcome in assay [1] was Active. Further, the Activity was found to be 111% in assay [2] (setting [6]) and 98% in assay [4]. The 50% effective concentration (EC50) in assay [3] stood at 0.063 µM; in assay [5] (read-out: EC50), 0.384 µM.
Regarding `Cc1c(OC[C@@H](C)COc2ccc(F)c(C(=O)O)c2)ccc(C(=O)CC(C)(C)C)c1O`, the values for the Activity in assay [2] (setting [6]) and in assay [4] were 92% and 99%, respectively. In addition, the EC50 was found to be 0.112 µM in assay [3] and 1.18 µM in assay [5] (read-out: EC50).
`COc1cc(OC[C@H](C)COc2ccc(C(=O)CC(C)(C)C)c(O)c2C)ccc1C(=O)O`: the Activity worked out at 88% in assay [2] (setting [6]) and 94% in assay [4]. For the same molecule, the concentration for a half-maximal effect (EC50) worked out at 0.194 µM in assay [3] and 1.46 µM in assay [5] (read-out: EC50).
Turning to `Cc1c(OC[C@@H](C)COc2ccc(Cl)c(C(=O)O)c2)ccc(C(=O)CC(C)(C)C)c1O`, the Activity was 73% in assay [2] (setting [6]) and 120% in assay [4]. The EC50 is 0.377 µM in assay [3] and 2.2 µM in assay [5] (read-out: EC50).
On to `Cc1c(OC[C@@H](C)COc2ccc3c(c2)C(=O)NC3)ccc(C(=O)CC(C)(C)C)c1O`, for which, in assay [2], the outcome was inactive. Moreover, the EC50 was above 10 µM in assay [3] and “Not Active” in assay [5]. Also, the Activity in assay [4] is 50%.
As to `Cc1c(OC[C@@H](C)COc2ccc(C(=O)O)c(Cl)c2)ccc(C(=O)CC(C)(C)C)c1O`, the Activity turned out to be 93% in assay [2] (setting [6]) and 107% in assay [4]. The EC50 is 0.05 µM in assay [3] and 0.86 µM in assay [5] (read-out: EC50).
As for `Cc1c(OCC(C)COc2ccc(C(=O)O)cc2Cl)ccc(C(=O)CC(C)(C)C)c1O` (single isomer, unassigned), the Activity amounted to 98% in assay [2] (setting [6]) and 97% in assay [4]. In addition, the concentration giving a half-maximal response (EC50) came to 0.477 µM in assay [3] and 1.65 µM in assay [5] (read-out: EC50).
Regarding `Cc1c(OC[C@H](C)Oc2ccc(F)c(C(=O)O)c2)ccc(C(=O)CC(C)(C)C)c1O`, the Activity stood at 105% in assay [2] (setting [6]) and 122% in assay [4]. The results for the concentration giving a half-maximal response (EC50) in assay [3] and in assay [5] (read-out: EC50) were 0.142 µM and 1.1 µM, respectively.
For `Cc1c(O[C@@H](C)COc2ccc(F)c(C(=O)O)c2)ccc(C(=O)CC(C)(C)C)c1O` the same measures were 89%, 114%, 0.257 µM and 1.12 µM.
